Molecular target: T1, factor D (Homo sapiens, UniProt P00746)
T1 construct: made in house; host or cells: E. coli
Assay: factor D inhibition assay of Biological Example 2
Assay type: biochemical

T1 sequence (P00746 26-253): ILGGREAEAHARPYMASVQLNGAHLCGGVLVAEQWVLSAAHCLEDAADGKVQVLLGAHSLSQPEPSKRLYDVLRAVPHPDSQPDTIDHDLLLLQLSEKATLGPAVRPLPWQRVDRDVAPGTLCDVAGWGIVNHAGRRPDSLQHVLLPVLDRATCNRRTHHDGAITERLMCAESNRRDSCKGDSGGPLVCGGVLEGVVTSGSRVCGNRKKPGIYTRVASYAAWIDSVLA

Compound	IC50
CC(O)c1cc(COc2ccccc2CC(=O)O)cc(-c2cccc([C@H](N)CO)c2)c1 (mixture of isomers) [116-E a), 2-(2-((3′-((S)-1-amino-2-hydroxyethyl)-5-(1-hydroxyethyl)-[1,1′-biphenyl]-3-yl)methoxy)phenyl)acetic acid]	9 nM
N[C@H](CO)c1cccc(-c2cc(COc3ccccc3CC(=O)O)cc(C(O)C(F)(F)F)c2)c1 (mixture of isomers) [116-G a), 2-(2-((3′-((S)-1-amino-2-hydroxyethyl)-5-(2,2,2-trifluoro-1-hydroxyethyl)-[1,1′-biphenyl]-3-yl)methoxy)phenyl)acetic acid]	6 nM
C[C@@H](N)c1cccc(-c2cc(COc3ccccc3CC(=O)O)cc(C(O)C(F)(F)F)c2)c1 (mixture of isomers) [116-H a), 2-(2-((3′-((R)-1-aminoethyl)-5-(2,2,2-trifluoro-1-hydroxyethyl)-[1,1′-biphenyl]-3-yl)methoxy)phenyl)acetic acid]	1 nM
N[C@H](CO)c1cccc(-c2cc(COc3ccccc3CC(=O)O)cc(C(O)C3CCCCC3)c2)c1 (mixture of isomers) [116-I a), 2-(2-((3′-((S)-1-amino-2-hydroxyethyl)-5-(cyclohexyl(hydroxy)methyl)-[1,1′-biphenyl]-3-yl)methoxy)phenyl)acetic acid]	13 nM
COC(C)c1cc(COc2ccccc2CC(=O)O)cc(-c2cccc([C@@H](C)N)c2)c1 (mixture of isomers) [Example 119-B, 2-(2-((3′-((R)-1-Aminoethyl)-5-(1-methoxyethyl)-[1,1′-biphenyl]-3-yl)methoxy)phenyl)acetic acid (mixture of diastereomers)]	13 nM
COC(C)c1cc(COc2ccccc2CC(=O)O)cc(-c2cccc([C@H](N)CF)c2)c1 (mixture of isomers) [Example 121-C, 2-(2-((3′-((S)-1-Amino-2-fluoroethyl)-5-(1-methoxyethyl)-[1,1′-biphenyl]-3-yl)methoxy)phenyl)acetic acid]	380 nM
N[C@H](CO)c1cccc(-c2ccc3c(c2)C(Oc2ccccc2CC(=O)O)CCC3)c1 (mixture of isomers) [Example 181, 2-(2-((7-(3-((S)-1-Amino-2-hydroxyethyl)phenyl)-1,2,3,4-tetrahydronaphthalen-1-yl)oxy)phenyl)acetic acid (mixture of diastereomers)]	8 nM
CC(C(=O)O)c1ccccc1NC(=O)c1cccc(-c2cc(F)cc(CN)c2)c1 (racemic) [Example 19-B, (±)-2-(2-(3′-(Aminomethyl)-5′-fluoro-[1,1′-biphenyl]-3-ylcarboxamido)phenyl)propanoic acid]	666 nM
CC(C#N)Oc1cc(C(=O)Nc2ccccc2CC(=O)O)cc(-c2cccc(CN)c2)c1 (racemic) [Example 64, (±)-2-(2-(3′-(Aminomethyl)-5-(1-cyanoethoxy)-[1,1′-biphenyl]-3-ylcarboxamido)phenyl)acetic acid]	63 nM
NC(CO)c1cccc(-c2cccc(C(=O)Nc3ccccc3CC(=O)O)c2)c1 (racemic) [Example 86, (±)-2-(2-(3′-(1-Amino-2-hydroxyethyl)-[1,1′-biphenyl]-3-ylcarboxamido)phenyl)acetic acid]	1260 nM
NC(CCO)c1cccc(-c2cccc(C(=O)Nc3ccccc3CC(=O)O)c2)c1 (racemic) [Example 87, (±)-2-(2-(3′-(1-amino-3-hydroxypropyl)-[1,1′-biphenyl]-3-ylcarboxamido)phenyl)acetic acid]	814 nM
CC(Oc1ccccc1CC(=O)O)c1cccc(-c2cccc(CN)c2)c1 (racemic) [Example 163, (±)-2-(2-(1-(3′-(aminomethyl)-[1,1′-biphenyl]-3-yl)ethoxy)phenyl)acetic acid]	61 nM
CNC(CO)c1cccc(-c2cccc(COc3ccccc3CC(=O)O)c2)c1 (racemic) [Example 171, (±)-2-(2-((3′-(2-Hydroxy-1-(methylamino)ethyl)-[1,1′-biphenyl]-3-yl)methoxy)phenyl)acetic acid]	2540 nM
N[C@H](CO)c1cccc(-c2ccc3c(c2)C(Oc2ccccc2CC(=O)O)CC3)c1 (mixture of isomers) [Example 172, (±)-2-(2-((6-(3-((S)-1-Amino-2-hydroxyethyl)phenyl)-2,3-dihydro-1H-inden-1-yl)oxy)phenyl)acetic acid]	5880 nM
CC(Oc1ccccc1CC(=O)O)c1cccc(-c2cccc(CN)c2F)c1 (racemic) [Example 183, (±)-2-(2-(1-(3′-(Aminomethyl)-2′-fluoro-[1,1′-biphenyl]-3-yl)ethoxy)phenyl)acetic acid]	29 nM
NC(=O)C(N)c1cccc(-c2cccc(COc3ccccc3CC(=O)O)c2)c1 (racemic) [Example 189, (±)-2-(2-((3′-(1,2-Diamino-2-oxoethyl)-[1,1′-biphenyl]-3-yl)methoxy)phenyl)acetic acid]	1110 nM
COCc1cc(COc2ccccc2CC(=O)O)cc(-c2cccc(C(N)CF)c2F)c1 (racemic) [Example 205-B, (±)-2-(2-((3′-(1-Amino-2-fluoroethyl)-2′-fluoro-5-(methoxymethyl)-[1,1′-biphenyl]-3-yl)methoxy)phenyl)acetic acid]	10 nM
NC(CF)c1cccc(-c2cc(COc3ccccc3CC(=O)O)cc(OCC3CC3)c2)c1F (racemic) [Example 206, (±)-2-(2-((3′-(1-Amino-2-fluoroethyl)-5-(cyclopropylmethoxy)-2′-fluoro-[1,1′-biphenyl]-3-yl)methoxy)phenyl)acetic acid]	5 nM
CC(O)c1cc(COc2ccccc2CC(=O)O)cc(-c2cccc([C@H](N)CO)c2)c1 (single isomer, unassigned) [116-E b) (tr = 3.8 min)]	11 nM
CC(O)c1cc(COc2ccccc2CC(=O)O)cc(-c2cccc([C@H](N)CO)c2)c1 (single isomer, unassigned) [116-E b) (tr = 5.7 min)]	13 nM
N[C@H](CO)c1cccc(-c2cc(COc3ccccc3CC(=O)O)cc(C(O)C(F)(F)F)c2)c1 (single isomer, unassigned) [116-G b) (tr = 2.1 min)]	11 nM
N[C@H](CO)c1cccc(-c2cc(COc3ccccc3CC(=O)O)cc(C(O)C(F)(F)F)c2)c1 (single isomer, unassigned) [116-G b) (tr = 3.4 min)]	9 nM
C[C@@H](N)c1cccc(-c2cc(COc3ccccc3CC(=O)O)cc(C(O)C(F)(F)F)c2)c1 (single isomer, unassigned) [116-H b) (tr = 3.0 min)]	10 nM
C[C@@H](N)c1cccc(-c2cc(COc3ccccc3CC(=O)O)cc(C(O)C(F)(F)F)c2)c1 (single isomer, unassigned) [116-H b) (tr = 4.6 min)]	15 nM

More lines, now with the values ahead:

IC50	Compound
5 nM	N[C@H](CO)c1cccc(-c2cc(COc3ccccc3CC(=O)O)cc(NCC3CCCO3)c2F)c1 (mixture of isomers) [Example 157, 2-(2-((3′-((S)-1-Amino-2-hydroxyethyl)-6-fluoro-5-(((tetrahydrofuran-2-yl)methyl)amino)-[1,1′-biphenyl]-3-yl)methoxy)phenyl)acetic acid]
7 nM	NC(CF)c1cccc(-c2cc(COc3ccccc3CC(=O)O)cc(NC[C@@H]3CCCO3)c2)c1F (mixture of isomers) [Example 204-B, 2-(2-((3′-(1-amino-2-fluoroethyl)-2′-fluoro-5-((((S)-tetrahydrofuran-2-yl)methyl)amino)-[1,1′-biphenyl]-3-yl)methoxy)phenyl)acetic acid (mixture of diastereomers)]
4 nM	C[C@@H](N)c1cccc(-c2cc(COc3ccccc3CC(=O)O)c(F)c(NCC3CCCO3)c2)c1F (mixture of isomers) [Example 221 b), 2-(2-((3′-((R)-1-aminoethyl)-2′,4-difluoro-5-(((tetrahydrofuran-2-yl)methyl)amino)-[1,1′-biphenyl]-3-yl)methoxy)phenyl)acetic acid]
4 nM	NCc1cccc(-c2cc(COc3ccccc3CC(=O)O)c(F)c(NCC3CCCO3)c2)c1 (racemic) [154-C b), (±)-2-(2-((3′-(aminomethyl)-4-fluoro-5-(((tetrahydrofuran-2-yl)methyl)amino)-[1,1′-biphenyl]-3-yl)methoxy)phenyl)acetic acid]
16 nM	NCc1cccc(-c2cc(OCC3CCCO3)cc(C(=O)Nc3ccccc3CC(=O)O)c2)c1 (racemic) [Example 63, (±)-2-(2-(3′-(Aminomethyl)-5-((tetrahydrofuran-2-yl)methoxy)-[1,1′-biphenyl]-3-ylcarboxamido)phenyl)acetic acid]
5 nM	CC(O)c1cc(COc2ccccc2CC(=O)O)cc(-c2cccc(CN)c2)c1 (racemic) [Example 106, (±)-2-(2-((3′-(Aminomethyl)-5-(1-hydroxyethyl)-[1,1′-biphenyl]-3-yl)methoxy)phenyl)acetic acid]
2 nM	NCc1cccc(-c2cc(COc3ccccc3CC(=O)O)cc(NCC3CCCO3)c2F)c1 (racemic) [Example 156-B, (±)-2-(2-((3′-(Aminomethyl)-6-fluoro-5-(((tetrahydrofuran-2-yl)methyl)amino)-[1,1′-biphenyl]-3-yl)methoxy)phenyl)acetic acid]
2 nM	NCc1cccc(-c2ccc3c(c2)C(Oc2ccccc2CC(=O)O)CC3)c1 (racemic) [Example 162, (±)-2-(2-((6-(3-(Aminomethyl)phenyl)-2,3-dihydro-1H-inden-1-yl)oxy)phenyl)acetic acid]
5 nM	NCc1cccc(-c2cc(COc3ccccc3CC(=O)O)cc(C(N)C(F)(F)F)c2)c1 (racemic) [Example 207-B, (±)-2-(2-((5-(1-Amino-2,2,2-trifluoroethyl)-3′-(aminomethyl)-[1,1′-biphenyl]-3-yl)methoxy)phenyl)acetic acid]
26 nM	N[C@H](CO)c1cccc(-c2cc(COc3ccccc3CC(=O)O)cc(C(O)C3CCCCC3)c2)c1 (single isomer, unassigned) [116-I b) (tr = 4.0 min)]
24 nM	N[C@H](CO)c1cccc(-c2cc(COc3ccccc3CC(=O)O)cc(C(O)C3CCCCC3)c2)c1 (single isomer, unassigned) [116-I b) (tr = 6.3 min)]
